Reference: ChEMBL document CHEMBL4138213, “Synthesis and biological characterization of ubenimex-fluorouracil conjugates for anti-cancer therapy” (Eur J Med Chem, 2018)
Activity calls are given as the source filed them. The rule behind the calls is not given here.

Assays:
PLC-PRF-5 [1] = experiment: Antiproliferative activity against human PLC/PRF/5 cells after 48 hrs by MTT assay; conditions: PLC-PRF-5, 48 h
PLC-PRF-5 [2] = experiment: Antiproliferative activity against human PLC/PRF/5 cells in presence of 5-FU after 48 hrs by MTT assay; format: functional, cell-based; conditions: PLC-PRF-5, 48 h
[3] = Antiproliferative activity against human ES2 cells in presence of 5-FU after 48 hrs by MTT assay; conditions: ES-2, 48 h
U-266 [4] = experiment: Antiproliferative activity against human U266 cells after 48 hrs by MTT assay; conditions: U-266, 48 h
U-937 [5] = experiment: Antiproliferative activity against human U937 cells in presence of 5-FU after 48 hrs by MTT assay; conditions: U-937, 48 h
U-266 [6] = experiment: Antiproliferative activity against human U266 cells in presence of 5-FU after 48 hrs by MTT assay; format: functional, cell-based; conditions: U-266, 48 h
HCT-116 [7] = experiment: Antiproliferative activity against human HCT116 cells in presence of 5-FU after 48 hrs by MTT assay; conditions: HCT-116, 48 h
A549 = experiment: Antiproliferative activity against human A549 cells in presence of 5-FU after 48 hrs by MTT assay; conditions: A549, 48 h
[8] = Antiproliferative activity against human H7402 cells in presence of 5-FU after 48 hrs by MTT assay; conditions: H7402, 48 h
HepG2 [9] = experiment: Antiproliferative activity against human HepG2 cells in presence of 5-FU after 48 hrs by MTT assay; format: functional, cell-based; conditions: HepG2, 48 h
PLC-PRF-5 [10] = experiment: Induction of apoptosis in human PLC/PRF/5 cells assessed as early apoptotic cells at 20 uM after 48 hrs by annexin-V-FITC/propidium iodide staining-based flow cytometric method (reference value: 5.82%); format: functional
PLC-PRF-5 [11] = experiment: Induction of apoptosis in human PLC/PRF/5 cells assessed as late apoptotic cells at 20 uM after 48 hrs by annexin-V-FITC/propidium iodide staining-based flow cytometric method (reference value: 0.341%); format: functional
PLC-PRF-5 [12] = experiment: Induction of apoptosis in human PLC/PRF/5 cells assessed as necrotic cells at 20 uM after 48 hrs by annexin-V-FITC/propidium iodide staining-based flow cytometric method (reference value: 0.106%); format: functional
PLC-PRF-5 [13] = experiment: Induction of apoptosis in human PLC/PRF/5 cells assessed as viable cells at 20 uM after 48 hrs by annexin-V-FITC/propidium iodide staining-based flow cytometric method (reference value: 93.7%); format: functional; conditions: PLC-PRF-5, 48 h, read-out: Activity
PLC-PRF-5 [14] = experiment: Induction of apoptosis in human PLC/PRF/5 cells assessed as early apoptotic cells at 20 uM in presence of 5-FU after 48 hrs by annexin-V-FITC/propidium iodide staining-based flow cytometric method (reference value: 5.82%); format: functional
PLC-PRF-5 [15] = experiment: Induction of apoptosis in human PLC/PRF/5 cells assessed as late apoptotic cells at 20 uM in presence of 5-FU after 48 hrs by annexin-V-FITC/propidium iodide staining-based flow cytometric method (reference value: 0.341%); format: functional
PLC-PRF-5 [16] = experiment: Induction of apoptosis in human PLC/PRF/5 cells assessed as necrotic cells at 20 uM in presence of 5-FU after 48 hrs by annexin-V-FITC/propidium iodide staining-based flow cytometric method (reference value: 0.106%); format: functional
PLC-PRF-5 [17] = experiment: Induction of apoptosis in human PLC/PRF/5 cells assessed as viable cells at 20 uM in presence of 5-FU after 48 hrs by annexin-V-FITC/propidium iodide staining-based flow cytometric method (reference value: 93.7%); format: functional; conditions: PLC-PRF-5, 48 h, read-out: Activity
PLC-PRF-5 [18] = experiment: Downregulation of CD13 expression in human PLC/PRF/5 cells at 10 uM after 48 hrs by flow cytometric method; format: functional, cell-based
PLC-PRF-5 [19] = experiment: Downregulation of CD13 expression in human PLC/PRF/5 cells at 10 uM in presence of 5-FU after 48 hrs by flow cytometric method; format: functional, cell-based
[20] = Drug level in Wistar rat plasma treated with (5-fluoro-2,4-dioxo-3,4-dihydropyrimidin1(2H)-yl)methyl-2-((S)-2-((2S,3R)-3-amino-2-hydroxy-4-phenylbut-anamido)-4-methylpentanamido)acetate hydrochloride assessed as peptidase-mediated compound formation at 80 mg/kg, iv by HPLC-MS/MS analysis; format: ADME, organism-based; conditions: in vivo
[21] = AUC (0 to infinity) in Wistar rat at 80 mg/kg, iv after 0.05 to 24 hrs by HPLC-MS/MS analysis; format: ADME, organism-based; parameters: dose 80 mg/kg, time infinity, route intravenous; conditions: in vivo
[22] = MRT (0 to infinity) in Wistar rat at 80 mg/kg, iv after 0.05 to 24 hrs by HPLC-MS/MS analysis; format: ADME, organism-based; conditions: Wistar, in vivo
Rattus norvegicus = experiment: VRT (0 to infinity) in Wistar rat at 80 mg/kg, iv after 0.05 to 24 hrs by HPLC-MS/MS analysis; format: ADME, organism-based; conditions: in vivo
[23] = Apparent clearance in Wistar rat at 80 mg/kg, iv after 0.05 to 24 hrs by HPLC-MS/MS analysis; format: ADME, organism-based; conditions: in vivo, read-out: CL(app) (converted)
[24] = Volume of distribution during elimination phase in Wistar rat at 80 mg/kg, iv after 0.05 to 24 hrs by HPLC-MS/MS analysis; format: ADME, organism-based; conditions: in vivo, read-out: Vz
[25] = Terminal Half life in Wistar rat at 80 mg/kg, iv after 0.05 to 24 hrs by HPLC-MS/MS analysis; format: ADME, organism-based; conditions: Wistar, in vivo, read-out: beta t1/2 (converted)
[26] = Cmax in Wistar rat at 80 mg/kg, iv after 0.05 to 24 hrs by HPLC-MS/MS analysis; format: ADME, organism-based; parameters: dose 80 mg/kg, route intravenous; conditions: in vivo
HUVEC = conditions: Homo sapiens, 30 uM
U-937 [27] = experiment: cells; conditions: Homo sapiens, U-937, 48 h
Description: Antiproliferative activity against human U937 cells after 48 hrs by MTT assay

HCT-116 [28] = experiment: cells; conditions: Homo sapiens, HCT-116, 48 h
HepG2 [29] = experiment: cells; conditions: Homo sapiens, HepG2, 48 h

Structure (SMILES): CC(C)C[C@H](NC(=O)[C@@H](O)[C@H](N)Cc1ccccc1)C(=O)O [UBENIMEX]
- IC50 (PLC-PRF-5 [1]): > 500 µM
- IC50 (PLC-PRF-5 [2]): 22.8 µM
- IC50 [3]: 37.1 µM
- IC50 (U-266 [4]): > 500 µM
- IC50 (U-937 [5]): 9.56 µM
- IC50 (U-266 [6]): 43.5 µM
- IC50 (HCT-116 [7]): 44.1 µM
- IC50 (A549): 15.9 µM
- IC50 [8]: 17.6 µM
- IC50 (HepG2 [9]): 14.5 µM
- Activity (PLC-PRF-5 [10]): 13%
- Activity (PLC-PRF-5 [11]): 3.59%
- Activity (PLC-PRF-5 [12]): 0.01%
- viability at 20 µM (PLC-PRF-5 [13]): 83.4%
- Activity (PLC-PRF-5 [14]): 33.3%
- Activity (PLC-PRF-5 [15]): 2.38%
- Activity (PLC-PRF-5 [16]): 0%
- viability at 20 µM (PLC-PRF-5 [17]): 64.3%
- Activity (PLC-PRF-5 [18]): Active
- Activity (PLC-PRF-5 [19]): Active
- Drug metabolism [20]: Metabolite_Detected
- AUC(0-inf) [21]: 11500 ng·h/mL
- MRT inf [22]: 3.44 h
- VRT (Rattus norvegicus): 13.087 hr2
- clearance [23]: 116 mL/min/kg
- Vd [24]: 34.2 L/kg
- half-life [25]: 3.4 h
- Cmax [26]: 2300 ng/mL
- inhibition (HUVEC): Active
- IC50 (U-937 [27]): 143 µM
- IC50 (HCT-116 [28]): 358 µM
- IC50 (HepG2 [29]): > 500 µM
